{
  "source": "patent US9295708B2",
  "about": "“Modified release formulations for oprozomib” (Onyx Therapeutics, Inc., priority 2012, dated 2016)",
  "assay": "API solubility in water",
  "type": "physicochemical",
  "data": [
    {"smiles": "COC[C@H](NC(=O)c1cnc(C)s1)C(=O)N[C@@H](COC)C(=O)N[C@@H](Cc1ccccc1)C(=O)[C@@]1(C)CO1", "note": "[API, Oprozomib]", "values": [
      {"measurement": "solubility", "result": "~500", "unit": "µg/mL"}
    ]}
  ]
}
